Read-outs that look alike come from different tables or passages of the source.
Legend:
[1] = target: 5-HT1A receptor (Homo sapiens (Human), UniProt P08908); experiment: Affinity for human 5-HT1A receptor ([3H]8-OH-DPAT binding, HEK-293 cell homogenates);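 note: Filter-retained radioactivity counted by scintillation, non-specific binding defined with 10 µM 8-OH-DPAT, Ki derived from percent inhibition of specific radioligand binding versus control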
Protocol: The non-specific binding value was determined by incubating the same mixture in the presence of 10 μM 8-OH-DPAT, which was used as the standard reference compound and tested in each experiment at several concentrations to obtain a competition curve.
Following the incubation, the samples were filtered rapidly under vacuum through glass fiber filter (GF/B, Packard) presoaked with 0.3% PEI and rinsed several times with ice-cold 50 mM Tris-HCl using a 96-sample cell harvester (Unifilter, Packard). The filters were dried and the retained radioactivity was measured in a scintillation counter (Topcount, Packard) using a scintillation cocktail (Microscint 0, Packard). The experimental results were expressed as a percent inhibition of the control radioligand specific binding, and Ki was the inhibition constant.

[2] = target: serotonin transporter (Rattus norvegicus (Rat), UniProt P31652); experiment: Inhibitory effect on [3H]5-HT uptake in rat synaptosome; format: biochemical; settings: rat brain synaptosomes, 37° C., 15 minutes, 0.1 μCi [3H]5-HT
serotonin transporter, sequence (P31652 whole entry): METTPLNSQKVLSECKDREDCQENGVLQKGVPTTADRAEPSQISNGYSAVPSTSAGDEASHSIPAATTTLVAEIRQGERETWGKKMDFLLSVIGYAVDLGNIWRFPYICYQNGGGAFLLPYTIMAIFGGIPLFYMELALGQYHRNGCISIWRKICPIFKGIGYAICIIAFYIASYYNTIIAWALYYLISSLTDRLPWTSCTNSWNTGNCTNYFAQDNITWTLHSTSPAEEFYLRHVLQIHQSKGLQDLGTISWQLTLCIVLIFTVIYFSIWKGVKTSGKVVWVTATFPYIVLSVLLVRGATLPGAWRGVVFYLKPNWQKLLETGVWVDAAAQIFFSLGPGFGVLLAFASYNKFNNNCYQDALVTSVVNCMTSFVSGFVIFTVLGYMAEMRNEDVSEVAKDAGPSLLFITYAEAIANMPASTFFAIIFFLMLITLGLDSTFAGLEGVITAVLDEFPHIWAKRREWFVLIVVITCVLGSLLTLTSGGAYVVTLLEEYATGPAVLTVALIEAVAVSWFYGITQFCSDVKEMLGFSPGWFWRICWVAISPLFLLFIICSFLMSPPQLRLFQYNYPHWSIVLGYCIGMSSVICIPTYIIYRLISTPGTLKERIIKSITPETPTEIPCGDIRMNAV
Protocol: The synaptosomes (150 μg) prepared from the rat brain were incubated at 37° C. for 15 minutes with 0.1 μCi [^3H]5-HT in the absence or presence of the test compound or the reference compound in a buffer solution containing 106.2 mM NaCl, 4.5 mM KCl, 2.25 mM MgSO4, 1.08 mM NaH2PO4, 22.5 mM NaHCO3, 9.9 mM glucose, 9 μM EGTA and 45 μM ascorbic acid (pH 7.4).
Inhibition of serotonin transporter in rat synaptosome was measured by the concentrations of [^3H]5-HT.

[3] = target: dopamine D2S receptor (Homo sapiens (Human), UniProt P14416); experiment: Affinity for human dopamine D2S receptor ([3H]methyl-spiperone binding); settings: 0.3 nM [3H]methyl-spiperone, cell membrane homogenates, 22° C., 60 minutes
dopamine D2S receptor, sequence (P14416 other isoform, or with tags, fused parts or gaps): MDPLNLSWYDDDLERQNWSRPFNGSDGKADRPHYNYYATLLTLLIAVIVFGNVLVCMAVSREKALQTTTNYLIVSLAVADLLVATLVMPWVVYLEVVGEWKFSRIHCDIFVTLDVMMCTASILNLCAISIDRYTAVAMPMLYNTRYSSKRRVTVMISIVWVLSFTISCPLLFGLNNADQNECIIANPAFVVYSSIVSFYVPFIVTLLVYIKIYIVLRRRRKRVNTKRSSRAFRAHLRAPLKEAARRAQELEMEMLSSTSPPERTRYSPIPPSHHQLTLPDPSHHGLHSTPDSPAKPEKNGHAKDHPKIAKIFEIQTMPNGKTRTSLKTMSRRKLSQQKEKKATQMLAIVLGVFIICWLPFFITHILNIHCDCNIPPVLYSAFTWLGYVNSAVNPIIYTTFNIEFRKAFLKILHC
Protocol: Cell membrane homogenates (24 μg protein) were incubated at 22° C. for 60 minutes with 0.3 nM [3H]methyl-spiperone in the absence or presence of the test compound in a buffer solution containing 50 mM Tris-HCl (pH 7.4), 120 mM NaCl, 5 mM KCl, 5 mM MgCl2 and 1 mM EDTA.
The non-specific binding value was determined by incubating the same mixture in the presence of 10 μM (+)butaclamol.
Following the incubation, the samples were filtered rapidly under vacuum through glass fiber filter (GF/B, Packard) presoaked with 0.3% PEI and rinsed several times with ice-cold 50 mM Tris-HCl using a 96-sample cell harvester (Unifilter, Packard). The filters were dried and the retained radioactivity was measured in a scintillation counter (Topcount, Packard) using a scintillation cocktail (Microscint 0, Packard).
The experimental results were expressed as a percent inhibition of the control radioligand specific binding, and Ki was the inhibition constant. The standard reference compound was (+)butaclamol, which was tested in each experiment at several concentrations to obtain a competition curve from which its IC50 was calculated, and then Ki value was calculated by ChengPrusoff equation.

[4] = read-out: Ki, binding affinity for 5-HT1A receptor, 0.3 nM [3H]8-OH-DPAT, human HEK-293 cell homogenates, 22° C., 60 minutes

5-HT1A receptor, sequence (P08908 whole entry): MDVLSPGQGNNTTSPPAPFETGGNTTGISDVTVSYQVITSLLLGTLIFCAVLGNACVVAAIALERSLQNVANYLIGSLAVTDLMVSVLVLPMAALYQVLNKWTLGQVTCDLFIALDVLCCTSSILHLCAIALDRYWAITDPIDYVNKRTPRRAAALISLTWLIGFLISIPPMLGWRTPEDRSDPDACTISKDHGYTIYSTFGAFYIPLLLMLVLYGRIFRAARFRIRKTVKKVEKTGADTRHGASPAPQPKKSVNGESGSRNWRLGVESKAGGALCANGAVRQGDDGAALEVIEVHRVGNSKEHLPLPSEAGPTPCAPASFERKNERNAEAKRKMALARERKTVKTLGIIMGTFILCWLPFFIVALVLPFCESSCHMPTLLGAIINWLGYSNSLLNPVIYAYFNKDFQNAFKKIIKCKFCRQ

SMILES | Ki [1, 4] [nM] | IC50 [2] [nM] | Ki [3] [nM] | Ki [1] [nM]
COc1cc(OC)nc(N2CCN(CCCCc3c[nH]c4ccccc34)CC2)n1 [Example 1, 3-(4-(4-(4,6-Dimethoxypyrimidin-2-yl)piperazin-1-yl)butyl)-1H-indole] | 3.3 |  |  | 
COc1ccc2[nH]cc(CCCCN3CCN(c4nc(OC)cc(OC)n4)CC3)c2c1 [Example 2, 3-(4-(4-(4,6-Dimethoxypyrimidin-2-yl)piperazin-1-yl)butyl)-5-methoxy-1H-indole] | 1.4 |  |  | 
COc1cc(OC)nc(N2CCN(CCCCc3c[nH]c4ccc(Cl)cc34)CC2)n1 [Example 3, 5-Chloro-3-(4-(4-(4,6-dimethoxypyrimidin-2-yl)piperazin-1-yl)butyl)-1H-indole] | 1.1 |  |  | 
COc1cc(OC)nc(N2CCN(CCCCc3c[nH]c4ccc(F)cc34)CC2)n1 [Example 4, 3-(4-(4-(4,6-Dimethoxypyrimidin-2-yl)piperazin-1-yl)butyl)-5-fluoro-1H-indole] | 2.8 | 6.4 | 110 | 
COc1cc(OC)nc(N2CCN(CCCCc3c[nH]c4ccc(C#N)cc34)CC2)n1 [Example 5, 3-(4-(4-(4,6-Dimethoxypyrimidin-2-yl)piperazin-1-yl)butyl)-1H-indole-5-carbonitrile] | 2.3 | 11 |  | 
COc1cc(OC)nc(N2CCN(CCCc3c[nH]c4ccccc34)CC2)n1 [Example 6, 3-(3-(4-(4,6-Dimethoxypyrimidin-2-yl)piperazin-1-yl)propyl)-1H-indole] | 4.8 | 24 |  | 
COc1ccc2[nH]cc(CCCN3CCN(c4nc(OC)cc(OC)n4)CC3)c2c1 [Example 7, 3-(3-(4-(4,6-Dimethoxypyrimidin-2-yl)piperazin-1-yl)propyl)-5-methoxy-1H-indole] | 0.19 |  |  | 
COc1cc(OC)nc(N2CCN(CCCc3c[nH]c4ccc(Cl)cc34)CC2)n1 [Example 8, 5-Chloro-3-(3-(4-(4,6-dimethoxypyrimidin-2-yl)piperazin-1-yl)propyl)-1H-indole] | 2 | 81 |  | 
COc1cc(OC)nc(N2CCN(CCCc3c[nH]c4ccc(F)cc34)CC2)n1 [Example 9, 3-(3-(4-(4,6-Dimethoxypyrimidin-2-yl)piperazin-1-yl)propyl)-5-fluoro-1H-indole] | 3.4 | 4.4 |  | 
COc1cc(OC)nc(N2CCN(CCCc3c[nH]c4ccc(C#N)cc34)CC2)n1 [Example 10, 3-(3-(4-(4,6-Dimethoxypyrimidin-2-yl)piperazin-1-yl)propyl)-1H-indole-5-carbonitrile] | 1.3 | 3.6 | 200 | 
Cc1cc(C)nc(N2CCN(CCCCc3c[nH]c4ccccc34)CC2)n1 [Example 11, 3-(4-(4-(4,6-Dimethylpyrimidin-2-yl)piperazin-1-yl)butyl)-1H-indole] | 1.1 | 82 |  | 
COc1ccc2[nH]cc(CCCCN3CCN(c4nc(C)cc(C)n4)CC3)c2c1 [Example 12, 3-(4-(4-(4,6-Dimethylpyrimidin-2-yl)piperazin-1-yl)butyl)-5-methoxy-1H-indole] | 1.1 |  |  | 
Cc1cc(C)nc(N2CCN(CCCCc3c[nH]c4ccc(Cl)cc34)CC2)n1 [Example 13, 5-Chloro-3-(4-(4-(4,6-dimethylpyrimidin-2-yl)piperazin-1-yl)butyl)-1H-indole] | 1.8 |  |  | 
Cc1cc(C)nc(N2CCN(CCCCc3c[nH]c4ccc(F)cc34)CC2)n1 [Example 14, 3-(4-(4-(4,6-Dimethylpyrimidin-2-yl)piperazin-1-yl)butyl)-5-fluoro-1H-indole] | 1.7 | 12 |  | 
Cc1cc(C)nc(N2CCN(CCCCc3c[nH]c4ccc(C#N)cc34)CC2)n1 [Example 15, 3-(4-(4-(4,6-Dimethylpyrimidin-2-yl)piperazin-1-yl)butyl)-1H-indole-5-carbonitrile] | 2.9 | 6.9 |  | 
Cc1cc(C)nc(N2CCN(CCCc3c[nH]c4ccccc34)CC2)n1 [Example 16, 3-(3-(4-(4,6-Dimethylpyrimidin-2-yl)piperazin-1-yl)propyl)-1H-indole] | 4.1 | 53 | 110 | 
COc1ccc2[nH]cc(CCCN3CCN(c4nc(C)cc(C)n4)CC3)c2c1 [Example 17, 3-(3-(4-(4,6-Dimethylpyrimidin-2-yl)piperazin-1-yl)propyl)-5-methoxy-1H-indole] | 0.29 |  |  | 
Cc1cc(C)nc(N2CCN(CCCc3c[nH]c4ccc(Cl)cc34)CC2)n1 [Example 18, 5-Chloro-3-(3-(4-(4,6-dimethylpyrimidin-2-yl)piperazin-1-yl)propyl)-1H-indole] | 0.71 | 31 |  | 

SMILES | Ki [1, 4] [nM] | IC50 [2] [nM] | Ki [3] [nM] | Ki [1] [nM]
Cc1cc(C)nc(N2CCN(CCCc3c[nH]c4ccc(F)cc34)CC2)n1 [Example 19, 3-(3-(4-(4,6-Dimethylpyrimidin-2-yl)piperazin-1-yl)propyl)-5-fluoro-1H-indole] | 1.4 | 7.9 |  | 
Cc1cc(C)nc(N2CCN(CCCc3c[nH]c4ccc(C#N)cc34)CC2)n1 [Example 20, 3-(3-(4-(4,6-Dimethylpyrimidin-2-yl)piperazin-1-yl)propyl)-1H-indole-5-carbonitrile] | 1.1 | 2 |  | 
COc1cc(C)nc(N2CCN(CCCCc3c[nH]c4ccc(C#N)cc34)CC2)n1 [Example 21, 3-(4-(4-(4-Methoxy-6-methylpyrimidin-2-yl)piperazin-1-yl)butyl)-1H-indole-5-carbonitrile] | 0.65 | 2.6 |  | 
COc1cc(C)nc(N2CCN(CCCc3c[nH]c4ccc(C#N)cc34)CC2)n1 [Example 22, 3-(3-(4-(4-Methoxy-6-methylpyrimidin-2-yl)piperazin-1-yl)propyl)-1H-indole-5-carbonitrile] |  | 2.7 |  | 1.5
N#Cc1ccnc(N2CCN(CCCCc3c[nH]c4ccc(F)cc34)CC2)n1 [Example 23, 2-(4-(4-(5-Fluoro-1H-indol-3-yl)butyl)piperazin-1-yl)pyrimidine-4-carbonitrile] | 18 | 6.1 |  | 
N#Cc1ccc2[nH]cc(CCCCN3CCN(c4nccc(C#N)n4)CC3)c2c1 [Example 24, 3-(4-(4-(4-Cyanopyrimidin-2-yl)piperazin-1-yl)butyl)-1H-indole-5-carbonitrile] | 6.2 | 1.9 |  | 
N#Cc1ccnc(N2CCN(CCCc3c[nH]c4ccc(F)cc34)CC2)n1 [Example 25, 2-(4-(3-(5-Fluoro-1H-indol-3-yl)propyl)piperazin-1-yl)pyrimidine-4-carbonitrile] | 4 | 4.5 |  | 
Fc1ccc2[nH]cc(CCCCN3CCN(c4nccc(C(F)(F)F)n4)CC3)c2c1 [Example 31, 5-Fluoro-3-(4-(4-(4-(trifluoromethyl)pyrimidin-2-yl)piperazin-1-yl)butyl)-1H-indole] | 2 | 16 |  | 
N#Cc1ccc2[nH]cc(CCCCN3CCN(c4nccc(C(F)(F)F)n4)CC3)c2c1 [Example 32, 3-(4-(4-(4-(Trifluoromethyl)pyrimidin-2-yl)piperazin-1-yl)butyl)-1H-indole-5-carbonitrile] | 0.7 | 10 |  | 
Fc1ccc2[nH]cc(CCCN3CCN(c4nccc(C(F)(F)F)n4)CC3)c2c1 [Example 33, 5-Fluoro-3-(3-(4-(4-(trifluoromethyl)pyrimidin-2-yl)piperazin-1-yl)propyl)-1H-indole] | 1 | 11 |  | 
N#Cc1ccc2[nH]cc(CCCN3CCN(c4nccc(C(F)(F)F)n4)CC3)c2c1 [Example 34, 3-(3-(4-(4-(Trifluoromethyl)pyrimidin-2-yl)piperazin-1-yl)propyl)-1H-indole-5-carbonitrile] |  | 5.9 |  | 0.2
N#Cc1ccc2[nH]cc(CCCCN3CCN(c4ncc(F)cn4)CC3)c2c1 [Example 35, 3-(4-(4-(5-Fluoropyrimidin-2-yl)piperazin-1-yl)butyl)-1H-indole-5-carbonitrile] |  | 4.7 |  | 
N#Cc1ccc2[nH]cc(CCCN3CCN(c4ncc(F)cn4)CC3)c2c1 [Example 36, 3-(3-(4-(5-Fluoropyrimidin-2-yl)piperazin-1-yl)propyl)-1H-indole-5-carbonitrile] |  | 8.2 |  | 
CCOC(=O)c1sc(N2CCN(CCCCc3c[nH]c4ccc(C#N)cc34)CC2)nc1C [Example 39, Ethyl 2-(4-(4-(5-cyano-1H-indol-3-yl)butyl)piperazin-1-yl)-4-methylthiazole-5-carboxylate] | 0.79 | 2.9 |  | 
Cc1nc(N2CCN(CCCCc3c[nH]c4ccc(C#N)cc34)CC2)sc1C(N)=O [Example 43, 2-(4-(4-(5-Cyano-1H-indol-3-yl)butyl)piperazin-1-yl)-4-methylthiazole-5-carboxamide] | 12 | 0.85 |  | 
Cc1nc(N2CCN(CCCc3c[nH]c4ccc(C#N)cc34)CC2)sc1C#N [Example 48, 2-(4-(3-(5-Cyano-1H-indol-3-yl)propyl)piperazin-1-yl)-4-methylthiazole-5-carbonitrile] | 2.6 | 7.7 |  | 
CC1CN(c2nccc(C(N)=O)n2)CCN1CCCc1c[nH]c2ccc(C#N)cc12 (stereo not shown) [Example 49, 2-(4-(3-(5-Cyano-1H-indol-3-yl)propyl)-3-methylpiperazin-1-yl)pyrimidine-4-carboxamide] |  | 0.28 |  | 
CC1CN(c2nccc(C(N)=O)n2)CCN1CCCCc1c[nH]c2ccc(C#N)cc12 (stereo not shown) [Example 50, 2-(4-(4-(5-Cyano-1H-indol-3-yl)butyl)-3-methylpiperazin-1-yl)pyrimidine-4-carboxamide] |  | 0.36 |  | 

— patent publication US9598401B2, “Substituted heteroaryl compounds and methods of use thereof” (Sunshine Lake Pharma Co., Ltd., priority 2013, dated 2017)
